The NIST ThermoML archive (doi:10.1021/je060107n)

Experiment: mn = molality of the nth substance listed, in mol/kg
Conditions: 101 kPa, Liquid; for mass density: Pycnometric method; for viscosity: Capillary tube (Ostwald / Ubbelohde) method; for speed of sound: Linear variable-path acoustic interferometer

O=[N+]([O-])[O-].O=[N+]([O-])[O-].[Mg+2] [magnesium nitrate] + O
Conditions	mass density [kg/m3]	speed of sound [m/s]	viscosity [mPa·s]
314.7 K, m1 = 0.0528	996.94	–	–
315 K, m1 = 0.0145	992.8	–	–
315.05 K, m1 = 1.525	1135.2	–	–
315.1 K, m1 = 3.501	1288.9	–	–
315.15 K, m1 = 3.757	1305.4	–	–
315.25 K, m1 = 0.9898	1088.5	–	–
315.25 K, m1 = 1.262	1112.4	–	–
315.3 K, m1 = 3.17	1270.8	–	–
315.6 K, m1 = 4.728	1367.6	–	–
315.8 K, m1 = 5.134	1391.1	–	–
315.95 K, m1 = 0.3405	1025.4	–	–
316.1 K, m1 = 0.896	1079	–	–
316.1 K, m1 = 2.793	1238.2	–	–
316.15 K, m1 = 1.827	1162.1	–	–
316.25 K, m1 = 4.039	1322.3	–	–
316.35 K, m1 = 4.97	1380.1	–	–
316.45 K, m1 = 5.282	1399.6	–	–
316.75 K, m1 = 0.6173	1052.2	–	–
317.15 K, m1 = 0.0528	995.93	–	–
317.15 K, m1 = 3.501	1287.7	–	–
317.25 K, m1 = 1.525	1134	–	–
317.25 K, m1 = 3.096	1259.7	–	–
317.35 K, m1 = 2.493	1213.8	–	–
317.35 K, m1 = 3.757	1304.1	–	–
317.5 K, m1 = 0.9898	1087.3	–	–
317.5 K, m1 = 1.262	1111.2	–	–
317.55 K, m1 = 3.118	1260.5	–	–
317.55 K, m1 = 4.285	1337.9	–	–
317.75 K, m1 = 2.131	1186	–	–
317.85 K, m1 = 0.2491	1016.9	–	–
317.95 K, m1 = 4.883	1372.7	–	–
318.15 K, m1 = 0.0145	–	1540.2	0.6082
318.15 K, m1 = 0.0528	–	1541.4	0.62
318.15 K, m1 = 0.2491	–	1554.4	0.655
318.15 K, m1 = 0.3405	–	1552.3	–
318.15 K, m1 = 0.5931	–	–	0.7284
318.15 K, m1 = 0.6173	–	1572	–
318.15 K, m1 = 0.896	–	1590	–
318.15 K, m1 = 0.9898	–	1596.3	0.8367
318.15 K, m1 = 1.262	–	1612.6	0.9225
318.15 K, m1 = 1.525	–	1629.5	–
318.15 K, m1 = 1.827	1160.9	1650.5	1.117
318.15 K, m1 = 2.131	–	1668.7	1.245
318.15 K, m1 = 2.493	–	1689.3	–
318.15 K, m1 = 2.584	–	–	1.473
318.15 K, m1 = 2.793	–	1708.7	–
318.15 K, m1 = 3.096	–	–	1.772
318.15 K, m1 = 3.118	–	1727.2	–
318.15 K, m1 = 3.17	–	1733.9	–
318.15 K, m1 = 3.329	–	–	1.935
318.15 K, m1 = 3.501	–	1748.8	–
318.15 K, m1 = 3.704	–	–	2.216
318.15 K, m1 = 3.757	–	1761.7	–
318.15 K, m1 = 4.039	–	–	2.545
318.15 K, m1 = 4.051	1321.2	1776	–
318.15 K, m1 = 4.285	–	1787.8	–
318.15 K, m1 = 4.403	–	1794.4	–
318.15 K, m1 = 4.728	–	–	3.456
318.15 K, m1 = 4.883	–	1818.4	–
318.15 K, m1 = 4.907	–	–	3.76
318.15 K, m1 = 5.134	–	1832.8	–
318.15 K, m1 = 5.282	–	–	4.426
318.25 K, m1 = 3.704	1300.4	–	–
318.35 K, m1 = 2.584	1221.6	–	–
318.4 K, m1 = 0.896	1077.9	–	–
318.5 K, m1 = 4.97	1378.6	–	–
318.7 K, m1 = 1.694	1148.1	–	–
318.8 K, m1 = 4.403	1344	–	–
318.8 K, m1 = 5.282	1398.1	–	–
318.9 K, m1 = 0.5931	1048.4	–	–
319.05 K, m1 = 0.6173	1051.1	–	–
319.35 K, m1 = 1.525	1132.8	–	–
319.35 K, m1 = 3.757	1302.8	–	–
319.45 K, m1 = 3.118	1259.2	–	–
319.5 K, m1 = 3.17	1268.1	–	–
319.55 K, m1 = 0.0528	994.98	–	–
319.55 K, m1 = 1.262	1110.2	–	–
319.9 K, m1 = 2.131	1184.8	–	–
319.9 K, m1 = 4.728	1364.8	–	–
319.95 K, m1 = 0.0145	990.65	–	–
320.2 K, m1 = 5.134	1388.4	–	–
320.25 K, m1 = 2.793	1235.8	–	–
320.3 K, m1 = 1.827	1159.7	–	–
320.3 K, m1 = 4.039	1319.5	–	–
320.65 K, m1 = 0.2491	1014.7	–	–
320.85 K, m1 = 1.694	1146.9	–	–
320.9 K, m1 = 0.3405	1023.3	–	–
320.9 K, m1 = 5.282	1396.6	–	–
321.25 K, m1 = 0.5931	1047.4	–	–
321.35 K, m1 = 3.096	1257.2	–	–
321.6 K, m1 = 2.493	1211.3	–	–
321.75 K, m1 = 0.9898	1085.2	–	–
321.8 K, m1 = 4.285	1335.1	–	–
321.9 K, m1 = 4.728	1363.5	–	–
321.95 K, m1 = 0.0528	993.94	–	–
322.1 K, m1 = 0.0145	989.61	–	–
322.2 K, m1 = 4.883	1370	–	–
322.25 K, m1 = 2.793	1234.5	–	–
322.35 K, m1 = 2.584	1219.2	–	–
322.45 K, m1 = 3.704	1297.7	–	–
322.45 K, m1 = 4.039	1318.2	–	–
322.75 K, m1 = 0.2491	1013.6	–	–
322.75 K, m1 = 4.051	1318.5	–	–
322.8 K, m1 = 4.97	1375.7	–	–
323.05 K, m1 = 4.403	1341.3	–	–
323.15 K, m1 = 0.0145	–	1545.7	0.5591
323.15 K, m1 = 0.0528	–	1548	0.5708
323.15 K, m1 = 0.2491	–	1559.2	0.6023
323.15 K, m1 = 0.3405	–	1563.6	–
323.15 K, m1 = 0.5931	–	–	0.6703
323.15 K, m1 = 0.6173	–	1576.6	–
323.15 K, m1 = 0.896	–	1593.9	–
323.15 K, m1 = 0.9898	–	1600.3	0.7676
323.15 K, m1 = 1.262	–	1614.9	0.8482
323.15 K, m1 = 1.525	–	1631.4	–
323.15 K, m1 = 1.827	–	1651.2	1.028
323.15 K, m1 = 2.131	–	1667.3	1.145
323.15 K, m1 = 2.493	–	1689.2	–
323.15 K, m1 = 2.584	–	–	1.353
323.15 K, m1 = 2.793	–	1707.5	–
323.15 K, m1 = 3.096	–	–	1.629
323.15 K, m1 = 3.118	–	1725.2	–
323.15 K, m1 = 3.17	–	1731.8	–
323.15 K, m1 = 3.329	–	–	1.772
323.15 K, m1 = 3.501	–	1744	–
323.15 K, m1 = 3.704	–	–	2.028
323.15 K, m1 = 3.757	–	1758.7	–
323.15 K, m1 = 4.039	–	–	2.319
323.15 K, m1 = 4.051	–	1770.9	–
323.15 K, m1 = 4.285	–	1783.2	–
323.15 K, m1 = 4.403	–	1789.3	–
323.15 K, m1 = 4.728	–	–	3.107
323.15 K, m1 = 4.883	–	1811.5	–
323.15 K, m1 = 4.907	–	–	3.418
323.15 K, m1 = 5.134	–	1828.2	–
323.15 K, m1 = 5.282	1395.1	–	3.975
323.4 K, m1 = 0.6173	1049	–	–
323.5 K, m1 = 1.525	1130.6	–	–
323.5 K, m1 = 3.757	1300.1	–	–
323.55 K, m1 = 3.17	1265.4	–	–
323.6 K, m1 = 3.118	1256.7	–	–
323.75 K, m1 = 1.262	1107.8	–	–
323.95 K, m1 = 0.9898	1084	–	–
323.95 K, m1 = 2.131	1182.5	–	–
324.25 K, m1 = 1.827	1157.4	–	–
324.45 K, m1 = 5.134	1385.4	–	–
324.95 K, m1 = 1.694	1144.5	–	–
325.25 K, m1 = 5.282	1393.7	–	–
